Laboratory results published in paper PMC4486022 (Cell reports, 2014).

Tests used:
[1] = target: T1, yIre1 (recombinant yeast IRE1) (Saccharomyces cerevisiae, UniProt P32361); assay: in vitro RNase assay, radiolabeled HAC1 RNA cleavage; assay type: biochemical
T1 sequence (P32361 641-1115 limits assumed): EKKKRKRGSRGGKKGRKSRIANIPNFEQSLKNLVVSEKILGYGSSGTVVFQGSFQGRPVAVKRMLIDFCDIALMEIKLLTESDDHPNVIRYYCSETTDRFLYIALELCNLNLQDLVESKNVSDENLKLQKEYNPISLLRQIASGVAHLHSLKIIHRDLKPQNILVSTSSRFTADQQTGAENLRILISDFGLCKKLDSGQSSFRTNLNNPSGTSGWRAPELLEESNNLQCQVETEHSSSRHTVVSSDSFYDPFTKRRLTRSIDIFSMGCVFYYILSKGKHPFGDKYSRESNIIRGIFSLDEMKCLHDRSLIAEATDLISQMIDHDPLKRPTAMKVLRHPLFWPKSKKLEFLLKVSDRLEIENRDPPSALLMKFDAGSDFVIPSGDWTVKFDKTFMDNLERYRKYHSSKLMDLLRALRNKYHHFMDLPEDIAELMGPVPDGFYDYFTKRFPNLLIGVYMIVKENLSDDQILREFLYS

[2] = target: T1, yIre1 (recombinant yeast IRE1); assay: in vitro RNase assay, HAC1 and BLOS1 RNA cleavage; assay type: biochemical; conditions: activator, 100 μM, 1 μM yIre1; Q site at kinase/RNase interface

| IC50 [1] [µM] | SMILES | in vitro RNase assay, HAC1 and BLOS1 RNA cleavage (activation) [2] |
| --- | --- | --- |
| ~30 | O=S(=O)(N=Cc1c(O)ccc2ccccc12)c1cccs1 [STF-083010] | – |
| – | O=c1c(O)c(-c2ccc(O)c(O)c2)oc2cc(O)cc(O)c12 [quercetin] | binding of Q to Ire1 was sufficient to promote cleavage of RIDD substrate RNA |
